Results reported in US9776972B2, “Pyrazole derivatives as arginine methyltransferase inhibitors and uses thereof” (priority 2013, dated 2017).

Target: human PRMT3 (Homo sapiens, UniProt O60678)
Assay: PRMT3 Biochemical Assay (3H-SAM Flashplate, peptide substrate)
Conditions: single experiment or average of multiple experiments

Sequence of human PRMT3 (O60678 with tags, fused parts or gaps): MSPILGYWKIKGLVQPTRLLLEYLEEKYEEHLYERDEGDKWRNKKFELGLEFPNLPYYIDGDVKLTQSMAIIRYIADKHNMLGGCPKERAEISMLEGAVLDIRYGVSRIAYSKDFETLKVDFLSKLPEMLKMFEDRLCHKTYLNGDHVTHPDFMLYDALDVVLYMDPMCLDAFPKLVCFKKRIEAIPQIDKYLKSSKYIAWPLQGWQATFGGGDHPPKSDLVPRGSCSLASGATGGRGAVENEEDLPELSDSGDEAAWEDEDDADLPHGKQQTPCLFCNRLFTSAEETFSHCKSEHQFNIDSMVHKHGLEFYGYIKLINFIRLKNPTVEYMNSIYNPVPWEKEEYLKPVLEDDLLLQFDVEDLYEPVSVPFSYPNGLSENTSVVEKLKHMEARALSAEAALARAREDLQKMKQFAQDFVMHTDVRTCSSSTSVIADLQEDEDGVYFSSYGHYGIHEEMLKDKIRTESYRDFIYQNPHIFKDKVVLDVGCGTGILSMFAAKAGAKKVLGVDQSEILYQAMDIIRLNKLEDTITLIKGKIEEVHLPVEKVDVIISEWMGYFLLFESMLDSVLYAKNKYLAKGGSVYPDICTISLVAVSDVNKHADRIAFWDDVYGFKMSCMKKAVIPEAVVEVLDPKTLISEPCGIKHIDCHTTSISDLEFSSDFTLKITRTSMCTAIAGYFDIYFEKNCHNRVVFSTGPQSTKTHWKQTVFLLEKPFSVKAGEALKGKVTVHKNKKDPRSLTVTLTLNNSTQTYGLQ

Row | Structure (SMILES) | IC50
1 | CN(CCN)Cc1c[nH]nc1-c1ccc(F)cc1 [Compound 1] | 2.65 µM
2 | CN(CCN)Cc1cn(C)nc1-c1ccc(F)cc1 [Compound 3] | 25.5 µM
3 | CCN(CCNC)Cc1c[nH]nc1-c1ccc(F)cc1 [Compound 9] | 3.16 µM
4 | CNCCN(C)Cc1cnn(C)c1-c1ccc(F)cc1 [Compound 10] | 13.4 µM
5 | CNCCN(C)Cc1cnn(CC2CCOCC2)c1-c1ccc(F)cc1 [Compound 12] | > 50 µM
6 | CNCCN(C)Cc1c[nH]nc1-c1cccc(N)c1 [Compound 32] | 2.76 µM
7 | CNCCN(C)Cc1c[nH]nc1-c1cccc(NC(C)=O)c1 [Compound 42] | 2.55 µM
8 | CNCCN(C)Cc1c[nH]nc1-c1cccc(C(C)=O)c1 [Compound 44] | 3.44 µM
9 | CNCCN(C)Cc1c[nH]nc1-c1ccc(-c2ccccc2)cc1 [Compound 47] | 0.53 µM
10 | CC(C)Oc1ccc(-c2n[nH]cc2CN(C)CCN)cc1 [Compound 67] | 4.58 µM
11 | CN(CCN)Cc1cn(C2COC2)nc1-c1ccc(F)cc1 [Compound 77] | 6.29 µM
12 | CN(CCN)Cc1c[nH]nc1-c1ccc(N2CCNCC2)cc1 [Compound 82] | 1.59 µM
13 | CN(CCN)Cc1c[nH]nc1-c1ccc(Cl)cc1Cl [Compound 86] | 5.82 µM
14 | Cc1ccc(-c2n[nH]cc2CN(C)CCN)c(C)c1 [Compound 88] | 8.08 µM
15 | CN(CCN)Cc1c[nH]nc1-c1ccc(F)cc1Cl [Compound 89] | 9.56 µM
16 | Cc1ccc(-c2n[nH]cc2CN(C)CCN)c(Cl)c1 [Compound 90] | 6.97 µM
17 | CN(CCN)Cc1c[nH]nc1-c1ccc(C(F)(F)F)cc1 [Compound 92] | 3.14 µM
18 | CN(CCN)Cc1c[nH]nc1-c1ccc(OC(F)(F)F)cc1 [Compound 93] | 3.61 µM
19 | CN(CCN)Cc1c[nH]nc1-c1ccc(OC(F)F)cc1 [Compound 94] | 5.37 µM
20 | CN(CCN)Cc1c[nH]nc1-c1ccc(Cl)cc1 [Compound 95] | 2.39 µM
21 | CC(C)Oc1ccc(-c2n[nH]cc2CN(C)CCN)cc1Cl [Compound 168] | 3.91 µM
